Measured values published in patent US10131652B2, “Pyrimidinyloxy benzene derivatives as herbicides” (E. I. DU PONT DE NEMOURS AND COMPANY, priority 2014, dated 2018).

Tests used:
Assay type in all cases: in vivo
Conditions in all cases: scale 0 to 100
Horseweed = assay: Test F postemergence plant response
[1] = tested on: large (Lg) crabgrass (Digitaria sanguinalis); assay: Test F pre-/postemergence plant response
Summary of the method: (§1)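 In a greenhouse, compounds carried in a non-phytotoxic surfactant-containing solvent mixture were applied to soil at planting and to young 1- to 4-leaf plants. About two to three weeks (14 to 21 days) afterward, each species was compared with controls and rated visually from 0 to 100.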

[2] = tested on: nightshade (eastern black nightshade, Solanum ptycanthum); assay: Test F pre-/postemergence plant response
Summary of the method: as §1

[3] = tested on: ragweed (common ragweed, Ambrosia elatior); assay: Test F pre-/postemergence plant response
Summary of the method: as §1

[4] = tested on: Italian ryegrass (Lolium multiflorum); assay: Test F pre-/postemergence plant response
Summary of the method: as §1

[5] = tested on: barnyardgrass (Echinochloa crus-galli); assay: Test F pre-/postemergence plant response
Summary of the method: as §1

[6] = tested on: hairy beggarticks (Bidens pilosa); assay: Test F pre-/postemergence plant response
Summary of the method: as §1

kochia (Kochia scoparia) = assay: Test F pre-/postemergence plant response
Summary of the method: as §1

[7] = tested on: surinam grass (Brachiaria decumbens); assay: Test F pre-/postemergence plant response
Summary of the method: as §1

[8] = tested on: yellow nutsedge (Cyperus esculentus); assay: Test F pre-/postemergence plant response
Summary of the method: as §1

[9] = tested on: velvetleaf (Abutilon theophrasti); assay: Test F pre-/postemergence plant response
Summary of the method: as §1

[10] = tested on: arrowleaf sida (Sida rhombifolia); assay: Test F pre-/postemergence plant response
Summary of the method: as §1

## CC(F)(F)c1cc(-c2ccccc2Oc2ncc(Br)cn2)no1 [Compound 149]
Horseweed; 16 g ai/ha Postemergence
  Plant response rating, Horseweed: 0
Horseweed; 31 g ai/ha Postemergence
  Plant response rating, Horseweed: 20
Horseweed; 62 g ai/ha Postemergence
  Plant response rating, Horseweed: 10
Horseweed; 125 g ai/ha Postemergence
  Plant response rating, Horseweed: 20
[1]; 16 g ai/ha Preemergence
  Plant response rating, Crabgrass, Large: 0
[1]; 31 g ai/ha Preemergence
  Plant response rating, Crabgrass, Large: 0
[1]; 62 g ai/ha Preemergence
  Plant response rating, Crabgrass, Large: 70
[1]; 125 g ai/ha Preemergence
  Plant response rating, Crabgrass, Large: 85
[2]; 16 g ai/ha Preemergence
  Plant response rating, Nightshade: 0
[2]; 31 g ai/ha Preemergence
  Plant response rating, Nightshade: 80
[2]; 125 g ai/ha Preemergence
  Plant response rating, Nightshade: 100
[2]; Preemergence
  Plant response rating, Nightshade: 98
[3]; 16 g ai/ha Postemergence
  Plant response rating, Ragweed: 10
[3]; 16 g ai/ha Preemergence
  Plant response rating, Ragweed: 20
[3]; 31 g ai/ha Postemergence
  Plant response rating, Ragweed: 40
[3]; 31 g ai/ha Preemergence
  Plant response rating, Ragweed: 25
[3]; 62 g ai/ha Postemergence
  Plant response rating, Ragweed: 30
[3]; 125 g ai/ha Postemergence
  Plant response rating, Ragweed: 35
[3]; 125 g ai/ha Preemergence
  Plant response rating, Ragweed: 20
[3]; Preemergence
  Plant response rating, Ragweed: 35
[4]; 16 g ai/ha Postemergence
  Plant response rating, Ryegrass, Italian: 0
[4]; 16 g ai/ha Preemergence
  Plant response rating, Ryegrass, Italian: 0
[4]; 31 g ai/ha Postemergence
  Plant response rating, Ryegrass, Italian: 10
[4]; 31 g ai/ha Preemergence
  Plant response rating, Ryegrass, Italian: 0
[4]; 62 g ai/ha Postemergence
  Plant response rating, Ryegrass, Italian: 10
[4]; 125 g ai/ha Postemergence
  Plant response rating, Ryegrass, Italian: 5
[4]; 125 g ai/ha Preemergence
  Plant response rating, Ryegrass, Italian: 40
[4]; Preemergence
  Plant response rating, Ryegrass, Italian: 20
[5]; 16 g ai/ha Postemergence
  Plant response rating, Barnyardgrass: 0
[5]; 16 g ai/ha Preemergence
  Plant response rating, Barnyardgrass: 0
[5]; 31 g ai/ha Postemergence
  Plant response rating, Barnyardgrass: 5
[5]; 31 g ai/ha Preemergence
  Plant response rating, Barnyardgrass: 0
[5]; 62 g ai/ha Postemergence
  Plant response rating, Barnyardgrass: 10
[5]; 62 g ai/ha Preemergence
  Plant response rating, Barnyardgrass: 15
[5]; 125 g ai/ha Postemergence
  Plant response rating, Barnyardgrass: 10
[5]; 125 g ai/ha Preemergence
  Plant response rating, Barnyardgrass: 35
[6]; 16 g ai/ha Postemergence
  Plant response rating, Beggarticks: 5
[6]; 16 g ai/ha Preemergence
  Plant response rating, Beggarticks: 0
[6]; 31 g ai/ha Postemergence
  Plant response rating, Beggarticks: 30
[6]; 31 g ai/ha Preemergence
  Plant response rating, Beggarticks: 0
[6]; 62 g ai/ha Postemergence
  Plant response rating, Beggarticks: 40
[6]; 62 g ai/ha Preemergence
  Plant response rating, Beggarticks: 0
[6]; 125 g ai/ha Postemergence
  Plant response rating, Beggarticks: 50
[6]; 125 g ai/ha Preemergence
  Plant response rating, Beggarticks: 0
Kochia (Kochia scoparia); 16 g ai/ha Postemergence
  Plant response rating, Kochia: 60
Kochia (Kochia scoparia); 16 g ai/ha Preemergence
  Plant response rating, Kochia: 0
Kochia (Kochia scoparia); 31 g ai/ha Postemergence
  Plant response rating, Kochia: 80
Kochia (Kochia scoparia); 31 g ai/ha Preemergence
  Plant response rating, Kochia: 0
Kochia (Kochia scoparia); 62 g ai/ha Postemergence
  Plant response rating, Kochia: 90
Kochia (Kochia scoparia); 125 g ai/ha Postemergence
  Plant response rating, Kochia: 95
Kochia (Kochia scoparia); 125 g ai/ha Preemergence
  Plant response rating, Kochia: 90
Kochia (Kochia scoparia); Preemergence
  Plant response rating, Kochia: 75
[7]; 16 g ai/ha Preemergence
  Plant response rating, Surinam Grass: 0
[7]; 31 g ai/ha Preemergence
  Plant response rating, Surinam Grass: 0
[7]; 125 g ai/ha Preemergence
  Plant response rating, Surinam Grass: 15
[7]; Preemergence
  Plant response rating, Surinam Grass: 15
[8]; 16 g ai/ha Preemergence
  Plant response rating, Nutsedge, Yellow: 0
[8]; 31 g ai/ha Preemergence
  Plant response rating, Nutsedge, Yellow: 0
[8]; 125 g ai/ha Preemergence
  Plant response rating, Nutsedge, Yellow: 15
[8]; Preemergence
  Plant response rating, Nutsedge, Yellow: 0
[9]; 16 g ai/ha Preemergence
  Plant response rating, Velvetleaf: 10
[9]; 31 g ai/ha Preemergence
  Plant response rating, Velvetleaf: 70
[9]; 125 g ai/ha Preemergence
  Plant response rating, Velvetleaf: 100
[9]; Preemergence
  Plant response rating, Velvetleaf: 85
[10]; 16 g ai/ha Postemergence
  Plant response rating, Arrowleaf Sida: 75
[10]; 16 g ai/ha Preemergence
  Plant response rating, Arrowleaf Sida: 0
[10]; 31 g ai/ha Postemergence
  Plant response rating, Arrowleaf Sida: 85
[10]; 31 g ai/ha Preemergence
  Plant response rating, Arrowleaf Sida: 35
[10]; 62 g ai/ha Postemergence
  Plant response rating, Arrowleaf Sida: 95
[10]; 62 g ai/ha Preemergence
  Plant response rating, Arrowleaf Sida: 65
[10]; 125 g ai/ha Postemergence
  Plant response rating, Arrowleaf Sida: 98
[10]; 125 g ai/ha Preemergence
  Plant response rating, Arrowleaf Sida: 100

## FC(F)c1cc(-c2c(Cl)cccc2Oc2ncc(Cl)cn2)no1 [Compound 179]
Horseweed; 16 g ai/ha Postemergence
  Plant response rating, Horseweed: 0
Horseweed; 31 g ai/ha Postemergence
  Plant response rating, Horseweed: 0
Horseweed; 62 g ai/ha Postemergence
  Plant response rating, Horseweed: 10
Horseweed; 125 g ai/ha Postemergence
  Plant response rating, Horseweed: 10
[1]; 16 g ai/ha Preemergence
  Plant response rating, Crabgrass, Large: 0
[1]; 31 g ai/ha Preemergence
  Plant response rating, Crabgrass, Large: 0
[1]; 62 g ai/ha Preemergence
  Plant response rating, Crabgrass, Large: 35
[1]; 125 g ai/ha Preemergence
  Plant response rating, Crabgrass, Large: 60
[2]; 31 g ai/ha Preemergence
  Plant response rating, Nightshade: 65
[2]; 125 g ai/ha Preemergence
  Plant response rating, Nightshade: 100
[2]; Preemergence
  Plant response rating, Nightshade: 100
[3]; 16 g ai/ha Postemergence
  Plant response rating, Ragweed: 45
[3]; 16 g ai/ha Preemergence
  Plant response rating, Ragweed: 0
[3]; 31 g ai/ha Postemergence
  Plant response rating, Ragweed: 40
[3]; 31 g ai/ha Preemergence
  Plant response rating, Ragweed: 0
[3]; 62 g ai/ha Postemergence
  Plant response rating, Ragweed: 40
[3]; 125 g ai/ha Postemergence
  Plant response rating, Ragweed: 50
[3]; 125 g ai/ha Preemergence
  Plant response rating, Ragweed: 0
[3]; Preemergence
  Plant response rating, Ragweed: 0
[4]; 16 g ai/ha Postemergence
  Plant response rating, Ryegrass, Italian: 0
[4]; 16 g ai/ha Preemergence
  Plant response rating, Ryegrass, Italian: 0
[4]; 31 g ai/ha Postemergence
  Plant response rating, Ryegrass, Italian: 0
[4]; 31 g ai/ha Preemergence
  Plant response rating, Ryegrass, Italian: 0
[4]; 62 g ai/ha Postemergence
  Plant response rating, Ryegrass, Italian: 0
[4]; 125 g ai/ha Postemergence
  Plant response rating, Ryegrass, Italian: 0
[4]; 125 g ai/ha Preemergence
  Plant response rating, Ryegrass, Italian: 10
[4]; Preemergence
  Plant response rating, Ryegrass, Italian: 0
[5]; 16 g ai/ha Postemergence
  Plant response rating, Barnyardgrass: 0
[5]; 16 g ai/ha Preemergence
  Plant response rating, Barnyardgrass: 0
[5]; 31 g ai/ha Postemergence
  Plant response rating, Barnyardgrass: 0
[5]; 31 g ai/ha Preemergence
  Plant response rating, Barnyardgrass: 0
[5]; 62 g ai/ha Postemergence
  Plant response rating, Barnyardgrass: 0
[5]; 62 g ai/ha Preemergence
  Plant response rating, Barnyardgrass: 0
[5]; 125 g ai/ha Postemergence
  Plant response rating, Barnyardgrass: 0
[5]; 125 g ai/ha Preemergence
  Plant response rating, Barnyardgrass: 5
[6]; 16 g ai/ha Postemergence
  Plant response rating, Beggarticks: 20
[6]; 16 g ai/ha Preemergence
  Plant response rating, Beggarticks: 0
[6]; 31 g ai/ha Postemergence
  Plant response rating, Beggarticks: 50
[6]; 31 g ai/ha Preemergence
  Plant response rating, Beggarticks: 0
[6]; 62 g ai/ha Postemergence
  Plant response rating, Beggarticks: 40
[6]; 62 g ai/ha Preemergence
  Plant response rating, Beggarticks: 0
[6]; 125 g ai/ha Postemergence
  Plant response rating, Beggarticks: 50
[6]; 125 g ai/ha Preemergence
  Plant response rating, Beggarticks: 0
Kochia (Kochia scoparia); 16 g ai/ha Postemergence
  Plant response rating, Kochia: 65
Kochia (Kochia scoparia); 16 g ai/ha Preemergence
  Plant response rating, Kochia: 0
Kochia (Kochia scoparia); 31 g ai/ha Postemergence
  Plant response rating, Kochia: 75
Kochia (Kochia scoparia); 31 g ai/ha Preemergence
  Plant response rating, Kochia: 0
Kochia (Kochia scoparia); 62 g ai/ha Postemergence
  Plant response rating, Kochia: 90
Kochia (Kochia scoparia); 125 g ai/ha Postemergence
  Plant response rating, Kochia: 95
Kochia (Kochia scoparia); 125 g ai/ha Preemergence
  Plant response rating, Kochia: 98
Kochia (Kochia scoparia); Preemergence
  Plant response rating, Kochia: 70
[7]; 16 g ai/ha Preemergence
  Plant response rating, Surinam Grass: 0
[7]; 31 g ai/ha Preemergence
  Plant response rating, Surinam Grass: 0
[7]; 125 g ai/ha Preemergence
  Plant response rating, Surinam Grass: 0
[7]; Preemergence
  Plant response rating, Surinam Grass: 0
[8]; 16 g ai/ha Preemergence
  Plant response rating, Nutsedge, Yellow: 0
[8]; 31 g ai/ha Preemergence
  Plant response rating, Nutsedge, Yellow: 0
[8]; 125 g ai/ha Preemergence
  Plant response rating, Nutsedge, Yellow: 0
[8]; Preemergence
  Plant response rating, Nutsedge, Yellow: 0
[9]; 16 g ai/ha Preemergence
  Plant response rating, Velvetleaf: 15
[9]; 31 g ai/ha Preemergence
  Plant response rating, Velvetleaf: 65
[9]; 125 g ai/ha Preemergence
  Plant response rating, Velvetleaf: 100
[9]; Preemergence
  Plant response rating, Velvetleaf: 90
[10]; 16 g ai/ha Postemergence
  Plant response rating, Arrowleaf Sida: 70
[10]; 16 g ai/ha Preemergence
  Plant response rating, Arrowleaf Sida: 0
[10]; 31 g ai/ha Postemergence
  Plant response rating, Arrowleaf Sida: 80
[10]; 31 g ai/ha Preemergence
  Plant response rating, Arrowleaf Sida: 80
[10]; 62 g ai/ha Postemergence
  Plant response rating, Arrowleaf Sida: 85
[10]; 62 g ai/ha Preemergence
  Plant response rating, Arrowleaf Sida: 80
[10]; 125 g ai/ha Postemergence
  Plant response rating, Arrowleaf Sida: 100
[10]; 125 g ai/ha Preemergence
  Plant response rating, Arrowleaf Sida: 90
